“And” between values parts separate entries of the source, which are not always exact repeats. Equal values may be shown once.
Key:
[1] = target: cytokeratin 7 (CK-7) (mouse) (UniProt Q9DCV7); test: IF colocalization (JACoP) of VT680 phage with marker, CP mouse pancreas sections
F4/80 (mouse) = F4/80 (mouse) (UniProt Q61549); test: as above
CD31 (mouse) = CD31 (mouse) (UniProt Q08481); test: as above
[2] = target: carboxypeptidase A1 (CPA1) (mouse) (UniProt Q7TPZ8); test: as above
collagen IIIa (mouse) = collagen IIIa (mouse) (UniProt P08121); test: as above
[3] = system: cellular components in the CP microenvironment; test: Cellular selectivity of phage clones: one-way ANOVA and Tukey-Kramer comparison of MCC of all cell markers; assay type: in vivo, mouse; settings: for Cell type the phage clone shows specificity to / Marker the phage clone shows specificity to: CP microenvironment; for Colocalized Markers (p < 0.05) / Corresponding Cellular Components: statistically significant selectivity for a single cellular component in CP
Excerpt: (§1) Immunofluorescence (IF). Post ex vivo imaging, mouse pancreata were submerged in Neg-50 Frozen Section Medium (Thermo Scientific, Waltham, Massachusetts, United States of America) and snap-frozen over liquid nitrogen vapor. The embedded tissues were cut into 5 μm sections using a cryostat (Leica Microsystems Inc., Buffalo Grove, Illinois, United States of America) for subsequent imaging with ZEISS LSM-880 Confocal Laser Scanning Microscope (Carl Zeiss Meditec, Inc., Jena, Germany) at the Advanced Microscopy Facility at the University of Virginia. Cell types of interest in the pancreatitis microenvironment were identified by immunohistochemistry using the following antibodies: rat anti-mouse CD31 at 1:200 dilution (endothelial markers; BD Biosciences, San Jose, California, United States of America), rat anti-mouse CD206 at 1:1000 dilution (M2 macrophage markers; Bio-Rad, Hercules, California, United States of America), rabbit anti-mouse cytokeratin 7 at 1:3000 dilution (CK-7, epithelial markers; Abcam, Cambridge, Massachusetts, United States of America), rabbit anti-mouse collagen IIIa at 1:200 dilution (ECM markers; Abcam, Cambridge, Massachusetts, United States of America), goat anti-mouse carboxypeptidase A1 at 1:200 dilution (CPA1, acini markers; R&D Systems, Inc., Minneapolis, Minnesota, United States of America), rat anti-mouse F4/80 at 1:500 (macrophage markers; Bio-Rad, Hercules, California, United States of America), and FITC-conjugated, mouse anti-mouse α-SMA at 1:200 dilution (MilliporeSigma, St. Louis, Missouri, United States of America). ALEXA FLUOR® 488 (Abcam, Cambridge, Massachusetts, United States of America) antibodies from appropriate species, including donkey anti-goat, donkey anti-rat, donkey anti-rabbit at 1:500 dilution, were used as secondary antibodies to locate the primary antibodies. IF-stained pancreatic sections were mounted with PROLONG™ Gold Antifade Mountant with DAPI (Thermo Fisher Scientific Inc, Waltham, Massachusetts, United States of America, United States of America) for nucleus visualization. IF images were taken on Ziess LSM 880 Confocal Microscope (ZIESS, Oberkochen, Germany) at the Advanced Microscopy Facility at the University of Virginia.
Statistical analysis. Statistical analysis of the data was performed by student t-test, one-way analysis of variance (ANOVA), and Tukey-Kramer test. All data presented are expressed as mean+standard error of at least three independent measurements. For all comparisons, p-values<0.05 were considered significant.
(§2) To identify the cell types that the CP targeting clones were binding, immunofluorescent analysis was performed on common cellular components in the CP microenvironment in the inflamed pancreas sections following in vivo validation of individual clones (FIG. 7). Mander's correlation coefficient (MCC) analysis was performed to determine colocalization of the targeting phage to the cell markers.

[4] = system: caerulein-induced CP mice (inflamed pancreas) versus healthy mice; test: In vivo validation of individual phage clones: ex vivo IVIS fluorescence of organs after co-injection of targeting phage (VT680) and wild type M13Ke phage (VT750); parameters: species or system mouse (C57BL/6J); settings: for CP-to-Healthy Ratio (fold change of specificity ratio): Pancreas; for specificity for CP over healthy pancreas: individual clones from Groups 2 and 3
Method: C57BL/6 J mice (6-12 week-old, female) were used for the in vivo phage screening. For chronic pancreatitis, caerulein (Bachem, Torrance, California, United States of America) was dissolved in sterile saline and administrated to mice twice a day, 8 hours apart for 14 consecutive days, at a concentration of 250 μg/kg body weight via intraperitoneal injection (Halbrook et al., 2017), as shown in FIG. 1A. During the 14-day course, intraperitoneal injections of 100 μg/kg buprenorphine were given every 3 days to minimize the induced pain. For healthy controls, c57BL/6 J mice were injected intraperitoneally with an equal volume of sterile saline following the same schedule as in the chronic pancreatitis models. […] Picrosirius red (Polysciences, Inc., Warrington, Pennsylvania, United States of America) was used to visualize collagen in paraffin-embedded pancreas sections (FIG. 1B).
Specificity of phage clones. After PHASTpep analysis and candidate clone selections, 18 candidate clones were grouped (4-5 clones per group, 4 groups total) based on sequence similarity using GibbsCluster Server 2.0 (Andreatta et al., 2017). by the Technical University of Denmark (FIG. 2). […] For each group, the fluorescently labeled candidate and WT phage were mixed and co-injected in CP and healthy mice (n=5) Phage accumulation was determined by measuring the ex vivo fluorescent intensity of the pancreas at 20 hours post-injection using the Fluorescent Molecular Tomography (FMT, PerkinElmer, Waltham, Massachusetts, United States of America) using the excitation and emission wavelength at 675 nm/720 nm for VT680 and 745 nm/800 nm for VT750. To account for variations of fluorescent labeling efficiency, the raw readouts of VT680 and VT750 were normalized to the dye-per-phage ratio (see Table 3 below).
The specificity ratio was calculated as % ID/g of the normalized VT680 divided by the % ID/g of the normalized VT750 (see Equation (1)). Quantifications are included in Table 4.
A similar procedure was applied to determine the specificity of individual phage clones in Groups 2 and 3. Candidate clones were labeled with VivioTag 680 (VT680, PerkinElmer, Waltham, MA) to match the detectable wavelength of the IVIS Spectrum Series (Perkin Elmer, Waltham, Massachusetts, United States of America). Fluorescent intensity was measured at 20 hours post-injection of candidate phage (VT680) and WT phage (VT750). Fold change of specificity ratio was calculated as the specificity ratio of CP mice divided by the specificity ratio of the healthy mouse (see Table 5).

[5] = system: αSMA+ cells (activated PSC); test: Immunofluorescence colocalization (MCC) of VT680-labeled phage with cell marker in CP pancreas; assay type: in vivo, mouse; settings: CP pancreas sections
Excerpt: as §1, §2

[6] = system: collagen IIIa+ cells (ECM); test: as above; assay type: in vivo, mouse; settings: Col IIIa; CP pancreas sections
Excerpt: as §1, §2

[7] = system: CPA-1+ cells (acinar cells); test: as above; assay type: in vivo, mouse; settings: CP pancreas sections
Excerpt: as §1, §2

CD31 (endothelium) = test: as above; assay type: in vivo, mouse; settings: CP pancreas sections
Excerpt: as §1, §2

[8] = system: F4/80+ cells (macrophages); test: as above; assay type: in vivo, mouse; settings: CP pancreas sections
Excerpt: as §1, §2

CK7 (epithelium) = test: as above; assay type: in vivo, mouse; settings: CP pancreas sections
Excerpt: as §1, §2

Sequence of UniProt Q7TPZ8 (Q7TPZ8 111-419): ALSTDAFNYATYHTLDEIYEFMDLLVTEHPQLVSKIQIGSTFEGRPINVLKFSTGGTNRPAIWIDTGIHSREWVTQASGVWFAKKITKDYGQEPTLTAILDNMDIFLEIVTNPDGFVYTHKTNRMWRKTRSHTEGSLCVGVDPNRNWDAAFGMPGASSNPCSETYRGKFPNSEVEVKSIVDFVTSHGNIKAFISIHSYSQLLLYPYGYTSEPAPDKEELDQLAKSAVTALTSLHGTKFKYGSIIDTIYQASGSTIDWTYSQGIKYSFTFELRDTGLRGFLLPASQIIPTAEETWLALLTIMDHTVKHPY
Sequence of UniProt Q08481 (Q08481 18-727): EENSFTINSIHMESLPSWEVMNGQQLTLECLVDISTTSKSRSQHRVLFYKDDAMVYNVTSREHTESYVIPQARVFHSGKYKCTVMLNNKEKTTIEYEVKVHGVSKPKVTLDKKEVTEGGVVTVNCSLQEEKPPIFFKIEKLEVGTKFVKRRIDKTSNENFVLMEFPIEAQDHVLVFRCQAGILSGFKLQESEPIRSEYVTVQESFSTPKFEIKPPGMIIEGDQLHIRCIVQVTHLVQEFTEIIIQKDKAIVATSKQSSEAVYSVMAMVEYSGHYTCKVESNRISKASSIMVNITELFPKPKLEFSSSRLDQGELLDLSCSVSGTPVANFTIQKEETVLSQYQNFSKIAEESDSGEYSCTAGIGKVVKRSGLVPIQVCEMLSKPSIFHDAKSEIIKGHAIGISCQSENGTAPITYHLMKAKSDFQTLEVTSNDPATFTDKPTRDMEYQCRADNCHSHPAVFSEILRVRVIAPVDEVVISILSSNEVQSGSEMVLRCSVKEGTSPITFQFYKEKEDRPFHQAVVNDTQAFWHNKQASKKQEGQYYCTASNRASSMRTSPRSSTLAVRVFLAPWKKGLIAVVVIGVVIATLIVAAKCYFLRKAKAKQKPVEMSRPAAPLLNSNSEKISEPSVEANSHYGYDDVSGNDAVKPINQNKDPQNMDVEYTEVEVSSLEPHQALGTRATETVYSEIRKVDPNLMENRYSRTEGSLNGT
Sequence of UniProt Q9DCV7 (Q9DCV7 2-457): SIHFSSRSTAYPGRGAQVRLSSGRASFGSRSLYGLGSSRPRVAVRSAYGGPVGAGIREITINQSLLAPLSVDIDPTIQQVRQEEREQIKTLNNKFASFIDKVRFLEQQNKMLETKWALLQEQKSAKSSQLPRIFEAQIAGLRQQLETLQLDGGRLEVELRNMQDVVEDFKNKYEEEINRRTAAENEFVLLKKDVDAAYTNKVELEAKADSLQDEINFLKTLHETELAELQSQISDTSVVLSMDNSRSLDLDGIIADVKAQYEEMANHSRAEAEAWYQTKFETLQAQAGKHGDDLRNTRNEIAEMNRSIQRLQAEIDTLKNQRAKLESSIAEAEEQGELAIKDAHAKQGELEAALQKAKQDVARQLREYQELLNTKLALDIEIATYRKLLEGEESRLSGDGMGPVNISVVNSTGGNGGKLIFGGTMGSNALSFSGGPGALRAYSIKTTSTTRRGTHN
Sequence of UniProt P08121 (P08121 155-1219): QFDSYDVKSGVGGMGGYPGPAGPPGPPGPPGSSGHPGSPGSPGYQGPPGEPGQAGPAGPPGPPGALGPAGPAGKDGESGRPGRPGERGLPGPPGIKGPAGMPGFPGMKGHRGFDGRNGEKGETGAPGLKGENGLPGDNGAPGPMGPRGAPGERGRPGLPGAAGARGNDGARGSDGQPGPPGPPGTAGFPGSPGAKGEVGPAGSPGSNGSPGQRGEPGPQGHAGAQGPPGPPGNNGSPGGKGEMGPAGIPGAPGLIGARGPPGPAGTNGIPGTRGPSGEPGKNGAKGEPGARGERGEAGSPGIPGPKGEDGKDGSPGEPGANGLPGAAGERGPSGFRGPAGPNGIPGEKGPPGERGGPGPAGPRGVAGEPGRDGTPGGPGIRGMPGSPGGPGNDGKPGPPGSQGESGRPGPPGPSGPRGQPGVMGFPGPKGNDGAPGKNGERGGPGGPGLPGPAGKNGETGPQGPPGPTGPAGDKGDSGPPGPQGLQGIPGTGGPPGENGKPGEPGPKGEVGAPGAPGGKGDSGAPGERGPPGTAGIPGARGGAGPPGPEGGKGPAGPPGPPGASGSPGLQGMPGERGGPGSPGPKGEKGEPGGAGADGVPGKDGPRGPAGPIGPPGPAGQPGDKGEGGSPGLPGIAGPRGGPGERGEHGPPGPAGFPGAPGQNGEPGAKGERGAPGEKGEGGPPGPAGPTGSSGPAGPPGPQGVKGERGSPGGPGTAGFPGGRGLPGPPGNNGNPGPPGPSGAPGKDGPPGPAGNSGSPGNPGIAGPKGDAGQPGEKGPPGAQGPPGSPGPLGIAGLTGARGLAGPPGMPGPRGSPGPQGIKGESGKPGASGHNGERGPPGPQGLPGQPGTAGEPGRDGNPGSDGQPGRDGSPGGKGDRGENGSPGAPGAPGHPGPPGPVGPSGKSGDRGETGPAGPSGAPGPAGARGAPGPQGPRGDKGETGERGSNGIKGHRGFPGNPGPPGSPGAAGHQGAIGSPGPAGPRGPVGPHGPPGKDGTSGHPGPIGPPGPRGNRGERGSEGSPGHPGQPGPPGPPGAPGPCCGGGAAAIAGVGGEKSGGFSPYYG
Sequence of UniProt Q61549 (Q61549 28-931): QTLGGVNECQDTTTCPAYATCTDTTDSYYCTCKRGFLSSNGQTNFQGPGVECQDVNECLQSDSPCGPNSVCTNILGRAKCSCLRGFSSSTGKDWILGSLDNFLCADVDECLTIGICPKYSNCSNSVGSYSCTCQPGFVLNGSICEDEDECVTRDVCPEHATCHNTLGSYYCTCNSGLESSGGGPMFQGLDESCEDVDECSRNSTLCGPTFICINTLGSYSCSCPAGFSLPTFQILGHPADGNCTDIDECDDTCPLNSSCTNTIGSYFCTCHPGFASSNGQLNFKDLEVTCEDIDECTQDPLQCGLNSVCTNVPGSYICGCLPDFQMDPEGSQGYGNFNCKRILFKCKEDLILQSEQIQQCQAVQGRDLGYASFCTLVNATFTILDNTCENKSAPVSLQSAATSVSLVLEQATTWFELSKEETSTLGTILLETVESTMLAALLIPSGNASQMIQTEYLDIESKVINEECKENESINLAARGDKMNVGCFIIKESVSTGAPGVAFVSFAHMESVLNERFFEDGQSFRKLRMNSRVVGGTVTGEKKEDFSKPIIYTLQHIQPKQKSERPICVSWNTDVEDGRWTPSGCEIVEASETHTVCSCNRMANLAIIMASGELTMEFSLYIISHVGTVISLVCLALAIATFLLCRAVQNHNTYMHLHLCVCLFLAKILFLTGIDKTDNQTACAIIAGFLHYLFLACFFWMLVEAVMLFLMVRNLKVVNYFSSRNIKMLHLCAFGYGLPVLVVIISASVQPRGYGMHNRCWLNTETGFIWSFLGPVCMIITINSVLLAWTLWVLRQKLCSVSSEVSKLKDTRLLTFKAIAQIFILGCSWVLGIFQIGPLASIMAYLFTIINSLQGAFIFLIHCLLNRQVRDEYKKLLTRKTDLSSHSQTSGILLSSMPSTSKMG

MDLSLKP (SEQ ID NO: 19) phage clone (peptide)
mean Manders' correlation coefficient (MCC), fraction of phage overlapping cell marker [1]: 0.06
mean Manders' correlation coefficient (MCC), fraction of phage overlapping cell marker (F4/80 (mouse)): 0.46
mean Manders' correlation coefficient (MCC), fraction of phage overlapping cell marker (CD31 (mouse)): 0.2
mean Manders' correlation coefficient (MCC), fraction of phage overlapping cell marker [2]: 0.31

KTYVPTT (SEQ ID NO: 14) phage clone (peptide)
mean Manders' correlation coefficient (MCC), fraction of phage overlapping cell marker [1]: 0.06
mean Manders' correlation coefficient (MCC), fraction of phage overlapping cell marker (F4/80 (mouse)): 0.31
mean Manders' correlation coefficient (MCC), fraction of phage overlapping cell marker (collagen IIIa (mouse)): 0.23
mean Manders' correlation coefficient (MCC), fraction of phage overlapping cell marker (CD31 (mouse)): 0.2
mean Manders' correlation coefficient (MCC), fraction of phage overlapping cell marker [2]: 0.26

HPYSPLR (SEQ ID NO: 11) phage clone (peptide)
mean Manders' correlation coefficient (MCC), fraction of phage overlapping cell marker [1]: 0.08
mean Manders' correlation coefficient (MCC), fraction of phage overlapping cell marker (F4/80 (mouse)): 0.41
mean Manders' correlation coefficient (MCC), fraction of phage overlapping cell marker (collagen IIIa (mouse)): 0.27
mean Manders' correlation coefficient (MCC), fraction of phage overlapping cell marker (CD31 (mouse)): 0.35
mean Manders' correlation coefficient (MCC), fraction of phage overlapping cell marker [2]: 0.25

MDLSLKP (displayed on phage)
Cell type the phage clone shows specificity to [3]: ECM
Marker the phage clone shows specificity to [3]: Collagen
Colocalized Markers (p < 0.05) [3]: Collagen
Corresponding Cellular Components [3]: ECM
Radiant efficiency Targeting:M13Ke ([4]; CP mouse, liver): 0.72
Radiant efficiency Targeting:M13Ke ([4]; CP mouse, pancreas): 10.85
Radiant efficiency Targeting:M13Ke ([4]; CP mouse, spleen): 2.70
CP-to-Healthy Ratio ([4]; Liver): 1.370
CP-to-Healthy Ratio (fold change of specificity ratio) [4]: 1.875
CP-to-Healthy Ratio ([4]; Spleen): 1.156
Radiant efficiency Targeting:M13Ke ([4]; healthy mouse, liver): 0.52
Radiant efficiency Targeting:M13Ke ([4]; healthy mouse, pancreas): 5.79
Radiant efficiency Targeting:M13Ke ([4]; healthy mouse, spleen): 2.34
specificity for CP over healthy pancreas [4]: increased specificity for CP over healthy pancreas
Mean Manders' Correlation Coefficient (MCC), fraction of phage overlapping cell marker [5]: 0.16
Mean Manders' Correlation Coefficient (MCC), fraction of phage overlapping cell marker [6]: 0.828±0.089 and 0.83
Mean Manders' Correlation Coefficient (MCC), fraction of phage overlapping cell marker [7]: 0.31
Mean Manders' Correlation Coefficient (MCC), fraction of phage overlapping cell marker (CD31 (endothelium)): 0.20
Mean Manders' Correlation Coefficient (MCC), fraction of phage overlapping cell marker [8]: 0.46
Mean Manders' Correlation Coefficient (MCC), fraction of phage overlapping cell marker (CK7 (epithelium)): 0.06

MNSIAIP (SEQ ID NO: 20) phage clone (peptide)
mean Manders' correlation coefficient (MCC), fraction of phage overlapping cell marker [1]: 0.05
mean Manders' correlation coefficient (MCC), fraction of phage overlapping cell marker (F4/80 (mouse)): 0.37
mean Manders' correlation coefficient (MCC), fraction of phage overlapping cell marker (collagen IIIa (mouse)): 0.34
mean Manders' correlation coefficient (MCC), fraction of phage overlapping cell marker (CD31 (mouse)): 0.24
mean Manders' correlation coefficient (MCC), fraction of phage overlapping cell marker [2]: 0.63

KTYVPTT (displayed on phage)
Cell type the phage clone shows specificity to [3]: aPSC
Marker the phage clone shows specificity to [3]: α-SMA^+
Colocalized Markers (p < 0.05) [3]: α-SMA
Corresponding Cellular Components [3]: aPSC
Radiant efficiency Targeting:M13Ke ([4]; CP mouse, liver): 0.61
Radiant efficiency Targeting:M13Ke ([4]; CP mouse, pancreas): 11.90
Radiant efficiency Targeting:M13Ke ([4]; CP mouse, spleen): 3.05
CP-to-Healthy Ratio ([4]; Liver): 1.161
CP-to-Healthy Ratio (fold change of specificity ratio) [4]: 1.362
CP-to-Healthy Ratio ([4]; Spleen): 0.890
Radiant efficiency Targeting:M13Ke ([4]; healthy mouse, liver): 0.53
Radiant efficiency Targeting:M13Ke ([4]; healthy mouse, pancreas): 8.74
Radiant efficiency Targeting:M13Ke ([4]; healthy mouse, spleen): 3.43
specificity for CP over healthy pancreas [4]: increased specificity for CP over healthy pancreas
Mean Manders' Correlation Coefficient (MCC), fraction of phage overlapping cell marker [5]: 0.521±0.067 and 0.52
Mean Manders' Correlation Coefficient (MCC), fraction of phage overlapping cell marker [6]: 0.23
Mean Manders' Correlation Coefficient (MCC), fraction of phage overlapping cell marker [7]: 0.26
Mean Manders' Correlation Coefficient (MCC), fraction of phage overlapping cell marker (CD31 (endothelium)): 0.20
Mean Manders' Correlation Coefficient (MCC), fraction of phage overlapping cell marker [8]: 0.31
Mean Manders' Correlation Coefficient (MCC), fraction of phage overlapping cell marker (CK7 (epithelium)): 0.06

SNSQDLH (SEQ ID NO: 28) phage clone (peptide)
mean Manders' correlation coefficient (MCC), fraction of phage overlapping cell marker [1]: 0.14
mean Manders' correlation coefficient (MCC), fraction of phage overlapping cell marker (F4/80 (mouse)): 0.8
mean Manders' correlation coefficient (MCC), fraction of phage overlapping cell marker (collagen IIIa (mouse)): 0.33
mean Manders' correlation coefficient (MCC), fraction of phage overlapping cell marker (CD31 (mouse)): 0.12
mean Manders' correlation coefficient (MCC), fraction of phage overlapping cell marker [2]: 0.23

SLPLGPM (SEQ ID NO: 26) phage clone (peptide)
mean Manders' correlation coefficient (MCC), fraction of phage overlapping cell marker [1]: 0.06
mean Manders' correlation coefficient (MCC), fraction of phage overlapping cell marker (F4/80 (mouse)): 0.49
mean Manders' correlation coefficient (MCC), fraction of phage overlapping cell marker (collagen IIIa (mouse)): 0.23
mean Manders' correlation coefficient (MCC), fraction of phage overlapping cell marker (CD31 (mouse)): 0.25
mean Manders' correlation coefficient (MCC), fraction of phage overlapping cell marker [2]: 0.35

From patent US20240115729A1, “COMPOSITIONS AND METHODS FOR TARGETED ANTIFIBROTIC THERAPY IN CHRONIC PANCREATITIS” (University of Virginia Patent Foundation, priority 2021, published 2024)
